In patent US20100200049A1, “BIOHYBRID SYSTEM FOR HYDROGEN PRODUCTION” (Alliance for Sustainable Energy, LLC, priority 2008, published 2010):

What was measured:
PS II [1] = target: T1, PS II (Thermosynechococcus vestitus, UniProt P0A444); experiment: Photocurrent of GC-PS II electrode wired to hydrogenase electrode, with DCMU added; assay type: biochemical, Thermosynechococcus elongatus; details: 5 μM and 10 μM DCMU in working solution; red light 660 nm, 10 s light/40 s dark; all oxidizing potentials tested (+0.2 to +1.0 V)
T1 construct: PS II complexes were isolated from Thermosynechococcus elongatus; from tissue; host or cells: Thermosynechococcus elongatus cells (photosynthetic membranes); method of Schatz and Witt 1984 with modifications
Procedure: (§1) PS II complexes were isolated from Thermosynechococcus elongatus according to methods described by Schatz and Witt (1984, Extraction and characterisation of oxygen-evolving Photosystem II complexes from a thermophilic cyanobacterium Synechococcus sp. Photobiochem. Photobiophys. 7: 1-14) with modifications.
(§2) The PS II electrode was prepared by depositing 5 μl of 1 mM isolated PS II complex preparation onto the electrode in almost complete darkness, with a weak non-actinic green light present, and dried overnight at +4° C. in darkness. A pyrolytic graphite edge (PGE) electrode with a diameter of 4.8 mm or a glassy carbon (GC) electrode with a diameter of 3 mm was used. Directly before the experiment, the surface of the electrode containing dried PS II sample was covered with a dialysis membrane (12000-14000 MW cutoff) that was held in place by o-ring.
The photocurrent was generated by illumination of the PS II electrode by red LED (660 nm) or white LED. The following light/dark cycle was used: 10 s light, 40 s dark, unless specified otherwise.
The experiments in which the PS II electrode was tested by addition of DCMU were performed using the GC-PS II electrode, wired to a 4.8 mm diameter PGE-hydrogenase electrode. […]

PS II [2] = target: T1, PS II; experiment: Photocurrent of PGE-PS II electrode with soluble electron mediator; assay type: biochemical, Thermosynechococcus elongatus; details: DMBQ 60 μM vs no mediator; +0.4 V vs Ag/AgCl; red light 660 nm, 10 s light/40 s dark
Procedure: as §1, §2
A 50 mM stock solution of DMBQ in ethanol was prepared fresh before the experiment and used as an electron mediator for PS II in various concentrations. […]

SMILES	effect on generation of photocurrent by the PS II electrode (PS II [1])	effect on amplitude of photocurrent generated by the PS II electrode (PS II [2])
CN(C)C(=O)Nc1ccc(Cl)c(Cl)c1 [DCMU]	inhibited the generation of photocurrent	
CC1=CC(=O)C=C(C)C1=O [DMBQ, 2,6-dimethyl 1,4-benzoquinone]		dramatically improved the amplitude of photocurrent
